This test relates to A5-S3G (DNA, aptamer) TCGGATAAAACCGGGCGGCGTTACACTAGGCG
The test is described as follows: biolayer interferometry. The following applies: 150 mM NaCl, 2 mM MgCl2; 50 mM Tris-HCl, pH 7.5; tested at 1000 nM in aptasensor.

`C=C1[C@@H](O)[C@@H]2O[C@]3(CC[C@H](/C=C/[C@@H](C)[C@@H]4CC(C)=C[C@@]5(O[C@H](C[C@@](C)(O)C(=O)O)CC[C@H]5O)O4)O3)CC[C@H]2O[C@@H]1[C@@H](O)C[C@H](C)[C@H]1O[C@@]2(CCCCO2)CC[C@H]1C`: the binding result is given as “no”.

For the origin of these results see paper PMC11510897 (2024).
